Experiments:
B2 bradykinin receptor = target: T1, B2 bradykinin receptor (Homo sapiens, UniProt P30411)
T1 sequence (P30411 whole entry): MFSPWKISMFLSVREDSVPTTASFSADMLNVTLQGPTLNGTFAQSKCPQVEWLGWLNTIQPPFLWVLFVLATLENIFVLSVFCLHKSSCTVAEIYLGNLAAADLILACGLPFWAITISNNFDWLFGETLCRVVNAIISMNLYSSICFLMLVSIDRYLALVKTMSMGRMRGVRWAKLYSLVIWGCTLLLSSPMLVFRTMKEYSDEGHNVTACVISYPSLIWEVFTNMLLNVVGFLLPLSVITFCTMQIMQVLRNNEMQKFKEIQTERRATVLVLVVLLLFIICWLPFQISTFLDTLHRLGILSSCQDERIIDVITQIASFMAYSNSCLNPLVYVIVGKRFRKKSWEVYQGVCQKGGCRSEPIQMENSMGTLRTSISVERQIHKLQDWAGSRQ

[1] = target: T2, Muscarinic acetylcholine receptor M2 (Homo sapiens, UniProt P08172); type: functional, cell-based
T2 sequence (P08172 whole entry): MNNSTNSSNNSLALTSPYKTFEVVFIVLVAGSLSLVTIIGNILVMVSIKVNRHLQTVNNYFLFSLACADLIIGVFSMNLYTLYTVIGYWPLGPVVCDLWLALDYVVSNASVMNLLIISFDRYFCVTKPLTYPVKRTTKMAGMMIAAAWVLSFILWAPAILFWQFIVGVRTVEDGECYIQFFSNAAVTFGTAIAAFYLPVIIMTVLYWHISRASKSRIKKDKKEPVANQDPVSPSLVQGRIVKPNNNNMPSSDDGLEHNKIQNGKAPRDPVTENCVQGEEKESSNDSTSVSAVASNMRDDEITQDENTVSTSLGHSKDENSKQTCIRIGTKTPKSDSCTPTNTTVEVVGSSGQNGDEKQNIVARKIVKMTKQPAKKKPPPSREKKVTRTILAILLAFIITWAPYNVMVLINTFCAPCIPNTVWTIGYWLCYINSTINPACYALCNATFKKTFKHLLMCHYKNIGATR

[2] = target: 5-hydroxytryptamine receptor 2B (Homo sapiens, UniProt P41595); type: functional, cell-based
Melanocortin receptor 3 = Melanocortin receptor 3 (Homo sapiens, UniProt P41968)
[3] = target: T3, Neuropeptide Y receptor type 1 (Homo sapiens, UniProt P25929); details: read-out: AC50
T3 sequence (P25929 whole entry): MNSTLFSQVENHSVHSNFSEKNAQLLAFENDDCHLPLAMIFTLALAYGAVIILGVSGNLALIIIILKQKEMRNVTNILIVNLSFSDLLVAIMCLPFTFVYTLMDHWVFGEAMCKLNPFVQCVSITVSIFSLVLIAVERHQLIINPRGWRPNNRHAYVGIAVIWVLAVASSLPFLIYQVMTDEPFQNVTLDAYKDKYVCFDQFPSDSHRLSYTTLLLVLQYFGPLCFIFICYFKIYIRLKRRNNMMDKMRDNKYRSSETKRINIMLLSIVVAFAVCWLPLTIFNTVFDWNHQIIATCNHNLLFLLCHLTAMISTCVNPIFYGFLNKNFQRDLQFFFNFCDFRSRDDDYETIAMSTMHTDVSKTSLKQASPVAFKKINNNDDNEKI

[4] = target: Kappa-type opioid receptor (Homo sapiens, UniProt P41145)
Progesterone receptor [5] = target: T4, Progesterone receptor (Homo sapiens, UniProt P06401); type: functional
T4 sequence (P06401 whole entry): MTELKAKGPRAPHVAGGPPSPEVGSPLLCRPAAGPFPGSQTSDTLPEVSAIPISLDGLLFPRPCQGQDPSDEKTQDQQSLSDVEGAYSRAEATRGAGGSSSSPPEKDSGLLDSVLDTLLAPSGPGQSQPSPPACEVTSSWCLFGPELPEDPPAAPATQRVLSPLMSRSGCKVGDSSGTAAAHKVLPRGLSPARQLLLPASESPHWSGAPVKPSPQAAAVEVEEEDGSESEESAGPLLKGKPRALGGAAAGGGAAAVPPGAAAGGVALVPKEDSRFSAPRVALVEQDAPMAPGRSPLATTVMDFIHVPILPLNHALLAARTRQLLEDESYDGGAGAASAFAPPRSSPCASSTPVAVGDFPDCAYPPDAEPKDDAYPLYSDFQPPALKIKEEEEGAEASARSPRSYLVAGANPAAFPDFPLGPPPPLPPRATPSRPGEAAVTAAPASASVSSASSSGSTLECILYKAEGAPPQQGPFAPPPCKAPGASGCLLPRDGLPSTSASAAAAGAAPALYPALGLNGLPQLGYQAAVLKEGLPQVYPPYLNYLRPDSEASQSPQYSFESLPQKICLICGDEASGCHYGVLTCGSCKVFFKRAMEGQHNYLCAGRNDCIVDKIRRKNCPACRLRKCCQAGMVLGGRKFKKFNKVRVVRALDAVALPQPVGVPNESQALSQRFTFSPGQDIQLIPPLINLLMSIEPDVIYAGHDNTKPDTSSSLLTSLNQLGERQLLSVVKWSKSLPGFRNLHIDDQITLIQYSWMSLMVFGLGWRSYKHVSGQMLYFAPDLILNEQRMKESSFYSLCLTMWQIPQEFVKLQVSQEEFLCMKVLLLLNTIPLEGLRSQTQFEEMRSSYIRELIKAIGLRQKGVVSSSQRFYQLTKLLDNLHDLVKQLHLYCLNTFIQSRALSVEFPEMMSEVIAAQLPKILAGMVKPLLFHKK

Progesterone receptor [6] = target: T4, Progesterone receptor; type: functional; remark: listed apart in the source
[7] = target: T5, Equilibrative nucleoside transporter 1 (Homo sapiens, UniProt Q99808)
T5 sequence (Q99808 whole entry): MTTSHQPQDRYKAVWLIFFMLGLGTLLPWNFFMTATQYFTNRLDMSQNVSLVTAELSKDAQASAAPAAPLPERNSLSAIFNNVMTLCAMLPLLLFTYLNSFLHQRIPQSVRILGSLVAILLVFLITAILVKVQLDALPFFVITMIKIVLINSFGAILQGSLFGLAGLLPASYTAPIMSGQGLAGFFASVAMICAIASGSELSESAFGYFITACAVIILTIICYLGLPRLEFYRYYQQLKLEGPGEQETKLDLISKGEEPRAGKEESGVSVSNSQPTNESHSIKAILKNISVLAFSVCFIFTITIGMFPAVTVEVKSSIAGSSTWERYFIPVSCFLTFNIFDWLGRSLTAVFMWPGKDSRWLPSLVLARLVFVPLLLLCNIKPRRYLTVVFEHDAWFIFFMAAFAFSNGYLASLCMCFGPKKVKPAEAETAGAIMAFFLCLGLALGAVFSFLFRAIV
Note: assay procedure not described here.

Sequence of Melanocortin receptor 3 (P41968 whole entry): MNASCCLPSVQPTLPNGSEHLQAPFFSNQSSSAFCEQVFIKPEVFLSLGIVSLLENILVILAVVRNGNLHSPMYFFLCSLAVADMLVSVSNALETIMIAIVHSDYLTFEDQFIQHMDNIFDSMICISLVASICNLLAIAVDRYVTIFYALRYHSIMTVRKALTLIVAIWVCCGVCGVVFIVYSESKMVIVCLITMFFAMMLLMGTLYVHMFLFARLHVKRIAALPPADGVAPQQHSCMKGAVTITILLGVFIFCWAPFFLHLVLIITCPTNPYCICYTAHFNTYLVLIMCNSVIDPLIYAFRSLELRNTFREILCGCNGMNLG
Sequence of 5-hydroxytryptamine receptor 2B (P41595 whole entry): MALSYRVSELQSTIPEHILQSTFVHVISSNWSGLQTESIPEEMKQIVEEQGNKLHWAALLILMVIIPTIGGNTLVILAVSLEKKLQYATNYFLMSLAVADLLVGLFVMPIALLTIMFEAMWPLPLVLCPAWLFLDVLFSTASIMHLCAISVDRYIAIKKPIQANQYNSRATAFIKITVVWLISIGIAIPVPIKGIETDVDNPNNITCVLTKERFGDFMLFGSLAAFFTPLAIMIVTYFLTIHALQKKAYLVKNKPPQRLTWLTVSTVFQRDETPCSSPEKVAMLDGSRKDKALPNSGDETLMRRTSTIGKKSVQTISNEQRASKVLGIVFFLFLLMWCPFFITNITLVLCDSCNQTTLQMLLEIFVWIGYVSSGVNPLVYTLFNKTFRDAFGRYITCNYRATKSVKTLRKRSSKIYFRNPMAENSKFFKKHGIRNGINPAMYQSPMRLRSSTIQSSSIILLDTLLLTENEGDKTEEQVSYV
Sequence of Kappa-type opioid receptor (P41145 whole entry): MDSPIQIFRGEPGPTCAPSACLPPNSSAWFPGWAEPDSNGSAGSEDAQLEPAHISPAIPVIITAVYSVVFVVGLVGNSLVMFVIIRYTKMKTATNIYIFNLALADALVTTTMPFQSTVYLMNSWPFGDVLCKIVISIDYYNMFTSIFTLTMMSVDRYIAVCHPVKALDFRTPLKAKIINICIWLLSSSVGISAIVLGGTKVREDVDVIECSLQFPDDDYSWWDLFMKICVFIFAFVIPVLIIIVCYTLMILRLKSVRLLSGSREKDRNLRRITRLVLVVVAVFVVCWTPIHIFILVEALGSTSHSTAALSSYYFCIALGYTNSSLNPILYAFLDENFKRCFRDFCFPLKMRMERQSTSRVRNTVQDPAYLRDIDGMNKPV

| SMILES | AC50 (B2 bradykinin receptor) [µM] | AC50 [1] [µM] | AC50 [2] [µM] | AC50 (Melanocortin receptor 3) [µM] | AC50 [3] [µM] | AC50 [4] [µM] | AC50 (Progesterone receptor [5]) [µM] | AC50 (Progesterone receptor [6]) [µM] | AC50 [7] [µM] |
| --- | --- | --- | --- | --- | --- | --- | --- | --- | --- |
| C[C@@H](NCCCc1cccc(C(F)(F)F)c1)c1cccc2ccccc12 | > 3 | > 30 | > 30 | 13 | > 10 | > 30 | > 30 | > 30 | > 30 |
| COc1ccc(CC2c3cc(OC)c(OC)cc3CC[N+]2(C)CCC(=O)OCCCCCOC(=O)CC[N+]2(C)CCc3cc(OC)c(OC)cc3C2Cc2ccc(OC)c(OC)c2)cc1OC (configuration not stated) | > 30 | > 30 | > 30 | > 30 | > 30 | 22 | > 30 | > 30 | > 30 |
| CCN1CCN(Cc2ccc(Nc3ncc(F)c(-c4cc(F)c5nc(C)n(C(C)C)c5c4)n3)nc2)CC1 [ABEMACICLIB] |  | > 30 | > 30 | > 30 |  |  | > 30 | > 30 | > 30 |
| COc1ccccc1Oc1c(NS(=O)(=O)c2ccc(C(C)(C)C)cc2)nc(-c2ncccn2)nc1OCCO [BOSENTAN] | > 30 | > 10 | > 10 | > 30 | > 30 | > 10 | > 30 | > 30 | > 30 |
| COc1cc2nccc(Oc3ccc(NC(=O)C4(C(=O)Nc5ccc(F)cc5)CC4)cc3)c2cc1OC [CABOZANTINIB] |  | > 30 | > 30 | > 30 |  |  | > 30 | 24 | > 30 |
| CC(C(=O)O)c1ccc2c(c1)[nH]c1ccc(Cl)cc12 (configuration not stated) [CARPROFEN] | > 30 | > 10 | > 10 | > 30 | > 10 | > 10 | > 30 | > 30 | > 30 |
| COc1ccccc1OCCNCC(O)COc1cccc2[nH]c3ccccc3c12 (configuration not stated) [CARVEDILOL] | > 30 | > 10 | > 30 | 28.8 | 25.3 | 18.9 | > 30 | > 30 | 31.7 |
| C[C@@H](Oc1cc(-c2cnn(C3CCNCC3)c2)cnc1N)c1c(Cl)ccc(F)c1Cl [CRIZOTINIB] |  | > 10 | > 30 | 19.9 | 8.44 |  | > 30 | > 30 | > 30 |
| C[C@H]1c2cccc(O)c2C(=O)C2=C(O)[C@]3(O)C(=O)C(C(N)=O)=C(O)[C@@H](N(C)C)[C@@H]3[C@@H](O)[C@@H]21 [DOXYCYCLINE] | > 30 | > 10 | > 10 | > 30 | > 30 | > 10 |  |  | > 30 |
| CN1C[C@H](C(=O)N[C@]2(C)O[C@@]3(O)[C@@H]4CCCN4C(=O)[C@H](Cc4ccccc4)N3C2=O)C=C2c3cccc4[nH]cc(c34)C[C@H]21 [ERGOTAMINE] |  | > 30 | > 10 | > 30 |  |  | > 30 | > 30 | > 30 |

— ChEMBL document CHEMBL5291721, “A preclinical secondary pharmacology resource illuminates target-adverse drug reaction associations of marketed drugs” (Nat Commun, 2023)
